{"source": "patent US10668068B2", "about": "“Treating cancer with drug combinations” (The Research Foundation for The State University of New York, priority 2015, dated 2020)", "key": {"BTK-C": {"molecular_target": "T1, BTK-C (Homo sapiens, UniProt Q06187)", "T1 construct": "Flag; expressed in transfected cells; host or cells: SKBR3-BTK-C (SKBR3 human breast cancer cells expressing BTK-C)", "T1 sequence (Q06187 1-693 isoform Q06187-2)": "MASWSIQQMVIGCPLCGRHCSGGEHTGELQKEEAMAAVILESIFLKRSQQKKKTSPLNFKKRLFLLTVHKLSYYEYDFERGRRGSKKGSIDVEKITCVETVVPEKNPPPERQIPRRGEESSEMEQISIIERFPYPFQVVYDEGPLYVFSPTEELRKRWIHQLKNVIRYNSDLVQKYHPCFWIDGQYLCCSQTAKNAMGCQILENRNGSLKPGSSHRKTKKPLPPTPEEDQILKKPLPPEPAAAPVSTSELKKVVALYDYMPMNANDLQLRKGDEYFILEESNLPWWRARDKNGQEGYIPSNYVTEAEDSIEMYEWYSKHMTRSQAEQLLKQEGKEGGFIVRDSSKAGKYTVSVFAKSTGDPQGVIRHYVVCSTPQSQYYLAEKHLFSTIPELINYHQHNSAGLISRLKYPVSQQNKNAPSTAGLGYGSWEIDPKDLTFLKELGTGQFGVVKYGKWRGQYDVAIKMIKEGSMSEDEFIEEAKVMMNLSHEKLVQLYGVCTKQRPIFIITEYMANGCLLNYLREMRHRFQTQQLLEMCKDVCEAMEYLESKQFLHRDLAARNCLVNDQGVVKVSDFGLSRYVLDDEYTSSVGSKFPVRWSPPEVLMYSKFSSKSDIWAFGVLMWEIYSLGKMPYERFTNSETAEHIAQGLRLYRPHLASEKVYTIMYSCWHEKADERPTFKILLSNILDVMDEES", "test": "Inhibition of BTK-C kinase activity / activating phosphorylation (FIG. 8A-C)", "format": "cell-based"}, "[1]": {"system": "EGFR, HER2, Her3 and ErbB4", "test": "Western blotting of EGFR family activation and downstream Akt/Erk in BT474 cells", "format": "cell-based, human", "conditions": "2 hours; for phosphorylation (activation) of EGFR family: ibrutinib 0.05 or 0.1 μM, AVL-292 0.1 μM", "protocol": "(§1) Immunoblotting was performed essentially as described previously. Equal amounts of proteins were used. Antibodies used were anti-EGFR (1:1000,), anti-HER2 (1:1000,), anti-ERBB3, ERBB4 antibody, anti-BTK, anti-AKT, ERIK, anti-PLCγ1, PLCγ2 and anti-PARP (1:1000, cell signaling), anti-Flag antibody (1:1000, Sigma), anti-rabbit IgG-HRP and mouse IgG-HRP (1:5000, Jackson ImmunoResearch)."}, "breast cancer cells": {"system": "breast cancer cells", "conditions": "cited from earlier work"}, "SKBR3 cells [2]": {"system": "SKBR3 cells", "test": "Cell growth assay (live cell count)", "format": "cell-based, human", "conditions": "1 μM, 3 days", "excerpt": "(§2) For live cell counts, cell growth on 96-well plates were fixed 4% formaldehyde and counterstained with Hoechst 33342 for nuclei."}, "BT474 cells [3]": {"system": "BT474 cells", "test": "Cell growth assay (live cell count), monolayer culture", "format": "cell-based, human", "conditions": "0.01 μM, 3 days", "excerpt": "as §2"}, "[4]": {"system": "HER2-positive breast cancer cells", "test": "Cell growth assay (live cell count)", "format": "cell-based", "conditions": "Homo sapiens, 72 h; 3 days of culture; read-out: IC50 for effect on HER2-positive breast cancer cells", "excerpt": "as §2"}, "[5]": {"system": "BT474 human breast cancer cells", "test": "Cell cycle analysis (propidium iodide, flow cytometry)", "format": "cell-based", "method": "After trypsinized, cells were collected and washed with cold PBS. Cells were fixed with 70% ethanol, washed and stained with PI/Triton X-100 staining solution (0.1% triton X-100, 2 μg/ml PI and 0.2 mg/ml DNAse-free RNAse) for 30 min. Samples were analyzed by flow cytometry."}, "xenografts of SKBR3": {"system": "xenografts of SKBR3", "protocol": "NOD/SCID mice were purchased from Jackson Lab (The Jackson Laboratory, Bar Harbor, Me., USA). All mouse procedures were approved by the Animal Care and Use Committees of SUNY Albany and performed in accordance with institutional policies.\nFor xenograft tumor studies, 1×10^6 SKBR3 cells were suspended in 50 μl Matrigel (BD Biosciences) diluted 1:2 with DMEM and injected into mammary fat pad. Treatment began when tumors were palpable. […] The tumor volume in mm^3 is calculated by the formula: volume=(width)^2×length/2 every 7 days."}, "[6]": {"system": "HER2-positive breast cancer cells", "test": "Apoptosis assay (Alexa Fluor 488 annexin V)"}, "BT474 cells [7]": {"system": "BT474 cells", "test": "Nine days NRG1 co-treatment, crystal violet staining", "format": "cell-based, human", "conditions": "9 days, drug 1 uM, NRG1 50 ng/ml", "protocol": "(§3) Cells were cultured in 6-well plates for indicated days. Cells were fixed with 3.7% paraformaldehyde for 10 min and washed with PBS. After wash, cells were stained with 0.05% CV for 30 min Whole plate was washed with tape water. Dry plate was added with 0.5 ml methanol to solubilize the dye. Taking an aliquot to 96-well plate and reading CV stain with OD 540. Tumorospheres were counted under low magnification."}, "SKBR3 cells [8]": {"system": "SKBR3 cells", "test": "Nine days NRG1 co-treatment, crystal violet staining", "format": "cell-based, human", "conditions": "9 days, drug 1 uM, NRG1 50 ng/ml", "protocol": "as §3"}, "AKT": {"system": "AKT", "test": "Immunoblots of NRG1 effect on HER2, AKT and ERK activation in BT474 and SkBR3 cells", "format": "cell-based, human", "conditions": "2 h", "protocol": "as §1"}, "[9]": {"system": "HER2-positive breast cancer cells", "test": "Live cell count with NRG1 or EGF (growth factor driven rescue)"}}}
{"smiles": "C=CC(=O)Nc1cccc(Nc2nc(Nc3ccc(OCCOC)cc3)ncc2F)c1", "note": "[AVL-292, N-(3-((5-fluoro-2((4-(2-methoxyethoxy)phenyl)amino)pyrimidin-4-yl)amino)phenyl)acrylamide]", "values": [{"measurement": "BTK-C activating phosphorylation", "setting": "BTK-C; FIG. 8C", "value": "inhibit BTK-C activating phosphorylation"}, {"measurement": "inhibition of BTK-C kinase activity", "setting": "BTK-C; compared with ibrutinib", "value": "inhibit BTK-C kinase activity to the same degree as ibrutinib"}, {"measurement": "phosphorylation (activation) of EGFR family", "setting": "[1]", "value": "does not block EGFR family signaling pathway activation"}]}
{"smiles": "Cc1c(NC(=O)c2ccc(C(C)(C)C)cc2)cccc1-c1cn(C)c(=O)c(Nc2ccc(C(=O)N3CCOCC3)cc2)n1", "note": "[CGI-1746]", "values": [{"measurement": "phosphorylation (activation) of EGFR family", "setting": "[1]", "value": "but not AVL-292 and CGI-1746, efficiently blocks activation of EGFR, HER2, ErbB3, and ErbB4"}]}
{"smiles": "C/C(O)=C(\\C#N)C(=O)Nc1cc(Br)ccc1Br", "note": "[LFM-A13]", "values": [{"measurement": "apoptosis levels", "setting": "breast cancer cells", "value": "increase apoptosis levels"}]}
{"smiles": "C=CC(=O)N1CCC[C@@H](n2nc(-c3ccc(Oc4ccccc4)cc3)c3c(N)ncnc32)C1", "note": "[ibrutinib]", "values": [{"measurement": "reduction of cell numbers", "setting": "SKBR3 cells [2]", "value": "more than 80%"}, {"measurement": "cell population, % of control", "setting": "BT474 cells [3]; BT474 monolayer", "value": "30 % of control"}, {"measurement": "IC50", "setting": "[4]", "value": 30, "unit": "nM"}, {"measurement": "decrease in the number of cells in the S phase", "setting": "[5]; 0.03 μM, compared with controls", "value": 50, "unit": "%"}, {"measurement": "tumor volume smaller than vehicle control / inhibition of tumor growth", "setting": "xenografts of SKBR3; 12 mg/kg/day p.o., day 28", "value": 45, "unit": "%"}, {"measurement": "apoptosis induction compared with lapatinib", "setting": "[6]; HER2-positive breast cancer cells", "value": 1.5, "unit": "fold"}]}
{"smiles": "CS(=O)(=O)CCNCc1ccc(-c2ccc3ncnc(Nc4ccc(OCc5cccc(F)c5)c(Cl)c4)c3c2)o1", "note": "[lapatinib]", "values": [{"measurement": "reduction of cell numbers", "setting": "BT474 cells [3]; monolayer", "value": "fails to reduce HER2-positive breast cancer cell numbers significantly"}, {"measurement": "Akt and Erk phosphorylation / downstream signaling", "setting": "[1]", "value": "inhibits both AKT and ERK phosphorylation"}, {"measurement": "G1-S arrest", "setting": "[5]; 24 hours", "value": "appreciable G1-S arrest"}, {"measurement": "drug resistance after NRG1 co-treatment", "setting": "BT474 cells [7]", "value": "yields cells that exhibit lapatinib resistance"}, {"measurement": "drug resistance after NRG1 co-treatment", "setting": "SKBR3 cells [8]", "value": "yields cells that exhibit lapatinib resistance"}, {"measurement": "re-activation of AKT by NRG1", "setting": "AKT; co-treatment with NRG1 50 ng/ml", "value": "NRG1 re-activates AKT without activation of HER2"}, {"measurement": "activation of HER2, AKT and ERK", "setting": "AKT; drug alone", "value": "blocked"}, {"measurement": "potency in SKBR3 tumor xenograft compared with ibrutinib 12 mg/kg/day", "setting": "xenografts of SKBR3; lapatinib 75 mg/kg/day p.o.", "value": "less potent"}, {"measurement": "number of apoptotic cells", "setting": "[6]; 0.05 or 0.1 μM, 24 hours", "value": "increase in the number of apoptotic cells"}, {"measurement": "rescue from growth inhibition by NRG1", "setting": "[9]; 50 ng/ml of NRG1, 3 days", "value": "NRG1 application is able to rescue"}, {"measurement": "cell growth suppression", "setting": "[9]; drug without growth factor, 3 days", "value": "potently suppresses cell growth"}]}
